{"source": "paper PMC10454726", "about": "(International Journal of Molecular Sciences, 2023)", "key": {"[1]": {"molecular_target": "α-glucosidase from Rominococcus obeum (Blautia obeum, UniProt A5ZY13)", "sequence (A5ZY13 entry or part of it)": "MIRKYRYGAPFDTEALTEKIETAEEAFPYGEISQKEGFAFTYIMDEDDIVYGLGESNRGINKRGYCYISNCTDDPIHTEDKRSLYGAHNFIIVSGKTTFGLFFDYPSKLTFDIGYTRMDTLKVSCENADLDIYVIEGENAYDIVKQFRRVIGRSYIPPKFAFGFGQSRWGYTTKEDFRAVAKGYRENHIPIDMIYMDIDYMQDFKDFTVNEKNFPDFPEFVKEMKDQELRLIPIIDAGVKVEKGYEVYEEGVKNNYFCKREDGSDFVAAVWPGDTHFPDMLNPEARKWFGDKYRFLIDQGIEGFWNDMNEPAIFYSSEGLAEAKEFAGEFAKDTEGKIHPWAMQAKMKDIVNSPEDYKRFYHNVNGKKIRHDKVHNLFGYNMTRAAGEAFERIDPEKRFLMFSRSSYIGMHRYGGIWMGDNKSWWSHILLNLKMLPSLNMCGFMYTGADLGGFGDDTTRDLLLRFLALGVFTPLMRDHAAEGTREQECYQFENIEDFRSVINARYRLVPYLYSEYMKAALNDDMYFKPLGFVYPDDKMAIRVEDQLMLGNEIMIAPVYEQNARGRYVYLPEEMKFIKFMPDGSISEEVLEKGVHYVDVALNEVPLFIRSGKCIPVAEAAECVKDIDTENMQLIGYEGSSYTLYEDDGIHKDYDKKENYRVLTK", "experiment": "Enzymatic kinetics of α-glucosidase inhibition (pNPG substrate)", "format": "biochemical", "experimental": "The kinetic studies for PTP1B and α-glucosidase were carried out under the same conditions described in the references."}, "[2]": {"experiment": "Cytotoxic effect on Human Foreskin fibroblasts (SRB)", "format": "cell-based", "settings": "HFF-1 cells", "experimental": "However, at high concentrations, they can be harmful to cells. For humans, doses less than 100 mg/day are considered safe. […] Therefore, we conducted cytotoxicity assays on Human Foreskin fibroblasts (HFF-1) and an AOT on female Wistar rats to assess their safety.\nIn a 96-well plate, 7000 cells per well of Human Foreskin fibroblasts (HFF-1) were cultured. […] Untreated cells were also included as a negative control. At the end of the incubation period, the cell contents were precipitated with 50 µL of a 50% aqueous solution of trichloroacetic acid (TCA) at 4 °C for 1 h. The supernatant was discarded and washed 5 times with distilled water. Afterward, the plates were allowed to dry at room temperature. The cell contents were incubated with 100 µL of a 0.04% sulforhodamine B (SRB) solution for 1 h at room temperature. The excess SRB was removed by washing with a 1% aqueous acetic acid solution. […] With the data obtained, the viability of treated cells was calculated by comparing the control without treatment. CC50 value was determined by employing BioStat Pro 5.9.8 software (AnalystSoft Inc., Brandon, FL, USA)."}, "[3]": {"system": "streptozotocin-induced diabetic rats", "experiment": "Oral glucose tolerance test in streptozotocin-induced diabetic rats", "format": "in vivo, Wistar rat", "design": "AUC of the OGTT: unit not given here", "experimental": "(§1) After a week of acclimation, 35 male Wistar rats were given a single intraperitoneal dose of STZ (Sigma Chemical Co. Toluca, Estado de México, Mexico) at a dosage of 45 mg/kg of body weight, after fasting for 12 h overnight with free access to water. To prevent initial drug-induced hypoglycemia mortality, these animals were given a 10% sucrose solution 24 h after administration. STZ was dissolved in 0.1 M of sodium citrate buffer (pH 4.5) and administered in a final volume of 5 mL/kg. A week after STZ injection, diabetes in streptozotocin rats was confirmed by measuring fasting blood glucose (by glucose oxidase method). Animals with a blood glucose (tail vein) above 126 mg/dL were considered diabetic and used for the experiment to create groups 2, 3, 4, 5, 6, and 7 [1, 13]. Blood glucose levels were measured using a glucometer (Accu-Chek Active, Roche, Mannheim, Germany) and reactive strips (Accu-Chek Active Glucose test strips, Roche). The presence of hyperglycemia and insulin level confirmed a model very similar to T2D in humans. For the pharmacological study, the final number of animals was 35 male rats, with 3 rats being sacrificed during the treatment stage. One was administered with FC-114 and two with acarbose. The first rat was damaged during oral glucose administration in the OGTT at week 5, and the other rats had gastrointestinal complications in week 7.\n(§2) The diabetic animals in group 2 (untreated) were given 4% v/v aqueous EtOH solution (vehicle of treatments) in a volume of 6.5 mL/kg body weight. The other groups (3–7) received different treatments for 14 days (weeks 5 to 7). […] All of the treatments were at equimolar doses of PIO and adjusted to the weekly weight of each rat. […] The commercial PIO tablet (30 mg) was crushed in 7.5 mL of vehicle and given to each animal in 4.0 mg/mL of suspension. The FC-114 and FC-122 suspensions were created at 6.2 and 6.0 mg/mL, respectively. The commercial acarbose tablet (50 mg) was crushed in 7.5 mL of the vehicle and given to each animal in a suspension of 6.6 mg/mL. Each suspension was used within 2 days of its preparation, and the administration volume was near to 2.5 mL for each rat.\nThe OGTT was carried out in weeks 3, 4, 5, 6, and 7. Prior to the OGTT, all animal groups fasted overnight for eight hours with free access to water. Each rat was weighed and then received a 2 g/kg glucose overload orally and blood samples were taken from the tail vein [13, 97]. Glucose levels were measured using a glucometer (Accu-Chek Active, Roche, Mannheim, Germany) at 0, 30, 60, 90, 120, and 180 min after glucose administration. The AUC of the OGTT was calculated using the blood glucose concentration over time and the GraphPad Prism 8.0.1 software package (GraphPad Software; Science Inc., San Diego, CA, USA) was used to compare the effectiveness of the treatments."}, "[4]": {"system": "streptozotocin-induced diabetic rats", "experiment": "Animal weight, food and water consumption in streptozotocin-induced diabetic rats", "format": "in vivo, Wistar rat", "experimental": "Six female (three for each compound: FC-114 and FC-122) (220 ± 10 g, for the acute toxicity assay) and forty male (215 ± 20 g, for the pharmacologic study) albino Wistar rats were acquired from the Isolation and Animal Facility Unit, Facultad de Estudios Superiores Cuautitlán (FESC), Universidad Nacional Autónoma de México (UNAM). They were kept in standard polypropylene boxes under controlled temperature (24 ± 4 °C) on a 12 h light/dark cycle and provided conventional food (formula 5001, Rat Chow) and purified water ad libitum. […] At the end of the experiment, the animals were taken to the humanitarian endpoint by the intraperitoneal (ip) administration of 75 mg/kg of sodium pentobarbital to perform a necropsy in the bioterium of FESC, UNAM. During the necropsy, blood serum was extracted to quantify glucose, triacylglycerides, cholesterol, and insulin. The study was conducted based on the guidelines of the Declaration of Helsinki and approved by the Institutional Review Board: Internal Committee for the Care and Use of Experimentation Animals (CICUAE, according to the initials in Spanish, C23_02 on March 2023) of the FESC UNAM (Mexico). It complies with the Mexican norm for this matter (NOM-062-ZOO-1999, Technical Specifications for the Production, Care, and Use of Laboratory Animals, SAGARPA), as well as the Guide for the Care and Use of Laboratory Animals of the National Research Council and National Institutes of Health (NIH Publications No. 8023, revised 1978).\nas §1, §2"}, "[5]": {"system": "streptozotocin-induced diabetic rats", "experiment": "Weekly fasting glucose in streptozotocin-induced diabetic rats", "format": "in vivo, Wistar rat", "settings": "after 7 and 14 days of treatment (weeks 6 and 7)", "experimental": "as §1, §2"}, "[6]": {"settings": "Week 5 (day 1 of treatment), oral, glibenclamide 0.6, FC-114 51.3, FC-122 49.1, PIO 30, acarbose 54.3 mg/kg/day"}, "[7]": {"settings": "Week 6 (day 7 of treatment), same doses"}, "[8]": {"settings": "Week 7 (day 14 of treatment), same doses"}, "[9]": {"settings": "after 7 days of treatment (weeks 5 to 6)"}}, "data": [{"compound": "CC1(C)c2[nH]c3ccc(C(F)(F)F)cc3c2C[C@]2(C)[C@H]3C(=O)C=C4[C@@H]5C[C@@](C)(C(=O)O)CC[C@]5(C)CC[C@@]4(C)[C@]3(C)CC[C@@H]12", "note": "[FC-114]", "values": [{"measurement": "α-glucosidase inhibitory activity", "setting": "[1]; range of concentrations tested", "result": "not active"}, {"measurement": "CC50 at 48 h", "setting": "[2]", "result": "59.5 ± 3", "unit": "µM"}, {"measurement": "AUC of the OGTT", "setting": "[3]; [6]", "result": "53,895"}, {"measurement": "AUC of the OGTT", "setting": "[3]; [7]", "result": "62,944"}, {"measurement": "AUC of the OGTT", "setting": "[3]; [8]", "result": "57,131"}, {"measurement": "animal weight compared to the untreated group (T2D)", "setting": "[4]; 14 days of treatment, weeks 5 to 7", "result": "difference in weight"}, {"measurement": "food intake", "setting": "[4]; [9]", "result": "maintained their increased food consumption"}, {"measurement": "food intake", "setting": "[4]; after 14 days of treatment (weeks 6 to 7)", "result": "tended to decrease toward normal levels"}, {"measurement": "fasting glucose levels", "setting": "[5]", "result": "halt the continuous increase of glucose levels"}]}, {"compound": "Cc1ccc(-n2ncc3c2C(C)(C)[C@@H]2CC[C@]4(C)[C@H](C(=O)C=C5[C@@H]6C[C@@](C)(C(=O)O)CC[C@]6(C)CC[C@]54C)[C@@]2(C)C3)cc1", "note": "[FC-122]", "values": [{"measurement": "Inhibition type (α-glucosidase)", "setting": "[1]; Lineweaver-Burk plots", "result": "linear-mixed type"}, {"measurement": "Ki", "setting": "[1]; substrate pNPG, Lineweaver-Burk", "result": 5.2, "unit": "µM"}, {"measurement": "fold better potency than acarbose (Ki)", "setting": "[1]; vs acarbose", "result": "~ 5 fold"}, {"measurement": "CC50 at 48 h", "setting": "[2]; HFF-1 human foreskin fibroblasts", "result": "68.4 ± 1", "unit": "µM"}, {"measurement": "AUC of the OGTT", "setting": "[3]; [6]", "result": "58,941"}, {"measurement": "AUC of the OGTT", "setting": "[3]; [7]", "result": "57,003"}, {"measurement": "AUC of the OGTT", "setting": "[3]; [8]", "result": "53,076"}, {"measurement": "glucose blood levels in OGTT compared to untreated animals", "setting": "[3]; after 14 days of administration, ANOVA/Bonferroni", "result": "ranked third"}, {"measurement": "food intake", "setting": "[4]; [9]", "result": "reduced food intake to near-normal levels"}, {"measurement": "water consumption", "setting": "[4]; after 14 days of administration", "result": "decreased water consumption compared to acarbose and FC-114"}, {"measurement": "fasting glucose levels", "setting": "[5]", "result": "halt the continuous increase of glucose levels"}]}]}
